This note sets out measurements from patent US8653120B2, “Method for treatment of chronic neuropathic pain” (Apkarian Technologies LLC, priority 2004, dated 2014).

What all share (assay type): in vivo
Test [1] concerns Rats with mechanically injured paws. Description: Rat model of neuropathic pain due to injury: tolerance to weight applied to the injured paw. The protocol: Rats with mechanically injured paws were used as models of neuropathic pain. In the test, a weight is applied to the injured paw, and the pain response is assessed. […] Rats (groups or 8-10 rats per treatment) were treated with oral saline (control) or 3, 10 or 30 mg/kg of D-cycloserine for a period of two weeks. Pain was monitored from two days before the treatment commenced for a period of 35 days total. […] The open squares represent the control. The black squares represent 30 mg/kg dosage. The two intermediate lines are 3 (lighter) and 10 mg/kg (darker). […] The black squares are the retreated animals, the white squares are the controls and the intermediate colored squares are animals treated for the first time with 30 mg/kg. […] Thus, treatment of chronic pain requires a treatment regimen that extends over a period of time, for example at least one week, sufficient to provide a benefit to the individual being treated.

Test [2] has the same test system. The test is described as follows: Rat model of neuropathic pain due to injury: test based on paw position. As to conditions: same test animals as FIGS. 2A-C; FIGS. 3A-C. The method, then: Rats with mechanically injured paws were used as models of neuropathic pain. In the test, a weight is applied to the injured paw, and the pain response is assessed. […] Rats (groups or 8-10 rats per treatment) were treated with oral saline (control) or 3, 10 or 30 mg/kg of D-cycloserine for a period of two weeks. Pain was monitored from two days before the treatment commenced for a period of 35 days total. FIGS. 3A-C show results for the same test animals as FIGS. 2A-C, except using a test based on paw position as opposed to tolerance to applied weight. In this case, lower numbers reflect lesser pain.

The test system of test [3] is rats treated with cisplatin. Description: Rat model of cisplatin-induced neuropathy: mechanical sensitivity. The method, then: To model drug-induced pain, rats were treated with cisplatin (2 mg/kg), a common chemotherapy drug. As shown graphically in FIG. 4, after 14 days of treatment, the rats had developed mechanical sensitivity. […] In contrast, sensitivity was maintained in rats treated with a saline control (white bars). Thus, in rat models of cisplatin-induced neuropathy, pain behavior decreases 50% in two weeks in animals treated with cycloserine compared with animals treated with placebo.

Test [4] concerns rat exhibiting mechanical sensitivity. Description: Analgesia after infusion into different parts of the rat brain. Conditions: 50 μg infusion, FIG. 5.
The mark [5] stands for this setting: 30 mg/kg, longer treatment period, FIG. 2C.

Structures are written as SMILES.

As to `N[C@@H]1CON=C1O` [D-cycloserine], the “analgesic effectiveness on re-treatment vs first treatment” value in test [1] (30 mg/kg re-treatment starting 1 day after end of the 35 day test, FIG. 2B) was “about twice as great”. For the same molecule, in test [1] (setting [5]), the “post-treatment duration of analgesia after longer treatment” value is reported as “significant analgesic affect being observed 30 days after cessation of treatment” and the “time course of analgesic effect with longer treatment” value is reported as “analgesic effect increases with treatment for a period of three weeks, after which a plateau is reached”. In test [1] (acute oral or intrathecal administration), the “analgesic effect of acute administration on neuropathic behavior” value is listed as “only minimal analgesic effects”. The post-treatment analgesia entry in test [1] (after end of two-week oral treatment, FIG. 2A) was “long-lasting analgesia”. Moreover, the “day of return to initial neuropathy levels” value in test [1] (after two-week oral treatment, FIG. 2A) turned out to be 35 days. Further, the “analgesic response during treatment (tolerated weight on injured paw)” value in test [1] (oral 3, 10 or 30 mg/kg for two weeks, vs saline, FIG. 2A) is reported as “generally dose-dependent response”. Further, the “pain measured by paw position (lower numbers reflect lesser pain)” value in test [2] is “indicates the effectiveness of the D-cycloserine”. Also, the “decrease of pain behavior compared with placebo” value in test [3] (cisplatin-induced neuropathy, two weeks of treatment) worked out at 50%. Moreover, the “effect on cisplatin-induced mechanical sensitivity” value in test [3] (oral 30 mg/kg, two treatments per day, 14 days, with cisplatin 2 mg/kg, FIG. 4) is listed as “partial reversal of the mechanical sensitivity”. In test [4] (vs saline infusion), the “analgesia after infusion into medial prefrontal cortex” value is recorded as “result in analgesia”. Besides, in test [4], the “analgesia after infusion into bilateral amygdala” value was “result in analgesia”; the “analgesia after infusion into visual cortex” value is “Only medial prefrontal cortex and amygdala infusions result in analgesia”.
